test: Human HepG2 cell viability assay in 384 well format; format: toxicity, cell-based; parameters: dose 125 nL, time 70.5 hour; cytotoxicity at 70.5 h: concentration not given beside the values; conditions: HepG2 cells, read-out: Inhibition

Structure (SMILES) | cytotoxicity at 70.5 h
CCN1CC2(CCC1=O)CCN(c1ccc(C(C)=O)cn1)CC2 | -3.76%
CN(Cc1ccccc1)c1ncccc1CNC(=O)c1ccnn1C | -10.4%
CCN(C)C[C@H]1CC[C@@H](Cc2ccc3c(cnn3C)c2)O1 | 11.5%
CCC[C@H]1CN(Cc2ccc3c(c2)OCCO3)C[C@@H]1NC(=O)COC | 3.4%
CCN1CC2(CCC1=O)CCN(Cc1cccc(C#N)c1)CC2 | -4.47%
CNS(=O)(=O)CCNCC1(O)CCCN(CCC2CCCCC2)C1=O (centres undefined) | -0.181%
CC(=O)NC1CCN(c2ncnc3c2c(C)nn3C)C1 (centres undefined) | -7.17%
CC(C)[C@H]1COC(=O)N1Cc1nccn1C(C)C | -4.48%
CCc1nc(NC2CCCN(C(=O)c3cccs3)C2)c2cnn(C)c2n1 (centres undefined) | 7.73%
CC(c1cccc(-c2nccn2CCc2ccccn2)c1)N(C)C (centres undefined) | -7.37%
COc1cccc(N2CCN(Cc3nccn3C(C)C)CC2=O)c1 | -2.87%
CN(CCCSc1ccccc1)C(=O)Cn1ncc(N(C)C)cc1=O | -7.24%
CC1(C)Cc2nc(C(C)(C)C)ncc2C(NC(=O)CN)C1 (centres undefined) | -10.1%
Cc1cccc2c1nc(CCO)n2-c1ccc(C(=O)N2CCOCC2)o1 | -1.12%
Cn1ccnc1SCCNC(=O)c1c[nH]nc1C1CCCCC1 | -8.06%
Cc1cc(NCCc2cnccn2)nc(-c2ccccc2O)n1 | -12.4%
Cc1[nH]ccc1C(=O)N1CCC2(CC1)c1nc[nH]c1CCN2S(C)(=O)=O | -4.51%
Cc1cnc(CNCc2cn(CCN3CCSCC3)nc2C)cn1 | 24.8%
CNC(=O)c1nc(CN2CCOC(C(F)(F)F)C2)no1 (centres undefined) | 28.6%
Cc1cc(N2CCC(n3cc(CN4CCSCC4)nn3)CC2)ccn1 | 1.06%
CCc1cnc(C)nc1NCCN1CCOCC1 | -0.575%
CN(CC(O)CO)c1nc(-c2cccnc2)nc2c1CCNC2 (centres undefined) | -17.2%
O=C(CCc1cn[nH]c1)N1C[C@@H](CN2CCCCCC2)[C@@H](CO)C1 | -8.48%
CC(C)C[C@@H](CO)n1cc(-c2cnc(-c3ccco3)nc2)nn1 | -6.45%
CCC[C@H]1CN(Cc2ccc(N(C)C)nc2)C[C@@H]1NS(=O)(=O)CC | -1.04%
CC(C)C(=O)NCC(=O)N1CCC2(CC1)c1ccccc1[C@@H](N)[C@@H]2O | 13.2%
CC(CCn1cccn1)Nc1ccc(-c2nccn2C)nn1 (centres undefined) | 22.7%

Structure (SMILES) | cytotoxicity at 70.5 h
Cc1cc(C)nc(N2CCN(Cc3cc4n(n3)CCNC4)CC2)n1 | -8.76%
CCN(Cc1cnn(CC)c1)C(=O)Cn1c(=O)c(C)nc2ccccc21 | -17.7%
O=C(O)c1cc(-c2cccnc2)cc(S(=O)(=O)NCc2ccccn2)c1 | -5.41%
CCn1ncnc1C(C)Nc1cc(C2CCNCC2)nc(C)n1 (centres undefined) | 26.8%
COC1CCN(C(=O)Cn2ncc(N3CCCCC3)cc2=O)C1 (centres undefined) | -2.54%
Cc1[nH]c2c(F)cccc2c1CC(=O)NCCCNc1cccnc1 | -11.8%
Cc1ccc(C)c(OCCNC(=O)C2CCOC2)c1 (centres undefined) | -1.02%
CC(c1cccc(-c2ncccc2F)c1)N(C)C (centres undefined) | -14.8%
O=C(c1ccc(C2CCCN2)s1)N1CCN(C(=O)N2CCOCC2)CC1 (centres undefined) | -6.24%
CC(C)c1cc(N[C@H](C(N)=O)C(C)C)n2nccc2n1 | -4.75%
COc1cccc(Cn2ncnc2CNC(C)=O)c1 | -10.5%
CC(=O)NCC(=O)N1CCc2[nH]c(-c3ccccc3)nc2C1 | -1.22%
CCSCCNC(=O)Nc1cc(C(=O)N2CCOCC2)ccc1Cl | -3.96%
CNS(=O)(=O)c1ccc(CN2CCN3CCNC(=O)C3C2)cc1 (centres undefined) | -6.1%
COC(=O)c1cc(OCC2CCC2)cc(C(=O)N[C@@H]2CCCNC2)c1 | -18.2%
COc1cccc(OC2CN(C(=O)C3CCCN(C(=O)N(C)C)C3)C2)c1 (centres undefined) | 26.8%
CSCc1noc(CN2CCC3(CC2)CC(=O)N(CC=C(C)C)C3)n1 | -11.8%
CC(c1ccc2c(c1)OCCO2)N(C)C(=O)c1ccnnc1 (centres undefined) | -5.69%
COc1ccc(-n2ccnc2-c2cnc(C(C)C)nc2)cc1C(=O)O | -3.39%
OCC1(CC2CC2)CCCN(Cc2ccc(C(F)(F)F)nc2)C1 (centres undefined) | -6.45%
CC(=O)N1C[C@@H]2CC[C@H](C1)N(S(=O)(=O)c1ccc(C#N)cc1Cl)C2 | -12.7%
Cc1ccc(-c2ncc(C(=O)N3CCC[C@H](N)C3)c(O)n2)cc1 | -6.29%
Cc1ccc(NC2CCCN(C3Cc4ccccc4C3)C2)nn1 (centres undefined) | -4.1%
Cc1nc(-c2cccnc2)ncc1C(=O)N1CCC(C(C)N(C)C)CC1 (centres undefined) | -2.91%
CCN1CCC(N2CCN(c3cc(-c4nc(C)no4)ccn3)CC2)CC1 | 11.7%
COC[C@]1(O)CCN(C2CCN(c3ccc(OC)cc3)CC2)CC1(C)C | 23.9%
Cc1cc(C)n(C2CCN(c3ncnc4sc5c(c34)CCNC5)C2)n1 (centres undefined) | -18.5%

Structure (SMILES) | cytotoxicity at 70.5 h
O=c1c2cccc(C(F)(F)F)c2ncn1C1CCNC1 (centres undefined) | -13.6%
c1ccc(Oc2ccc(OC34CCCN(CC3)C4)cc2)cc1 (centres undefined) | -9.13%
O=C(CC1CCc2ccccc21)NCCSc1ccccn1 (centres undefined) | 11.8%
COc1ccccc1CN(Cc1cccc(C)c1)C(=O)[C@@H](N)CC(=O)O | 8.65%
CN(C)C(=O)CN1C[C@@H]2CC[C@H](C1)N(Cc1ccc(Cl)cc1Cl)C2 | 2.51%
Cc1noc(-c2ccc(N3CCC[C@H]3CO)nc2)n1 | -0.652%
CCc1nnsc1C(=O)N1CCCC(c2nc3ccccc3[nH]2)C1 (centres undefined) | -14.3%
CN(C)C(=O)N1CC[C@]2(O)CCN(C(=O)c3ccc(C#N)nc3)C[C@@H]2C1 | 3.74%
O=C(NCCOCCO)[C@@]12CNC[C@@H]1CN(C1CCCC1)C2 | 2.24%
O=C(c1cnc(Nc2ccccc2)nc1)N1CCC2(CCNCC2)CC1 | -13.5%
COc1ccccc1-c1ncc(CN2CCC3(CCN(C)C3)CC2)cn1 | -8.29%
O=C(N[C@@H]1CCN(C(=O)c2cc[nH]c2)C[C@H]1O)c1ccccn1 | -0.892%
O=C(CCNC(=O)c1ccccc1F)NCCNc1cccnc1 | 1.94%
CCc1nc2ccccc2n1C(CC)C(=O)N(C)Cc1nc(C)c[nH]1 (centres undefined) | 21.7%
Cn1cnnc1CC1CCN(Cc2c(Cl)cncc2Cl)CC1 | 16.9%
CCNc1ncc(C(=O)NCCc2ccc(C)c(C)c2)cn1 | -4.37%
CCn1ncc2c1NC(=O)CC2c1cnc(-c2ccccn2)nc1 (centres undefined) | -2.85%
Cc1ncoc1C(=O)N1CCc2[nH]nc(-c3ccc4c(c3)OCO4)c2C1 | 16.8%
CS(=O)(=O)c1ccc(CC(=O)N2CCN3CCNC(=O)C3C2)cc1 (centres undefined) | -2.91%
CN(Cc1noc2c1CCCC2)C(=O)Nc1cncc(F)c1 | -7.85%
CC(C)CNC(=O)CN1CCCC(c2ccc(C(=O)O)cc2)C1 (centres undefined) | -6.21%
CN(Cc1ccccc1-n1cccn1)c1nc(N)nc2c1CCNCC2 | 4.77%
Cc1ccccc1N1CCN(C(=O)c2cnc(C3CC3)nc2)C(C)C1 (centres undefined) | -2.79%
Cc1ncc(CN2CCC3(CC2)CC(=O)N(C)C3)cn1 | 4.13%
Cc1oc(C(C)C)cc1C(=O)N1C[C@H]2CC[C@@H]1CN(S(=O)(=O)N(C)C)C2 | -7.52%

— ChEMBL document CHEMBL3507680, “University of Dundee, Gates Library screen for HepG2 cell viability”
